Measurements: US5889026A, “4-hydroxy-piperodine derivatives” (Hoffmann-La Roche Inc., priority 1996, dated 1999)
Counter-ions that a name gives are not always drawn. Like-named read-outs stand apart in the source and are kept apart here.

Columns and labels:
[1] = target: T1, 3H-Ro 25-6981 binding (NMDA receptor) (Rattus norvegicus, UniProt P35439+Q00960); assay: 3H-Ro 25-6981 binding; details: rat brain membranes (minus cerebellum and medulla oblongata); 5 nM 3H-Ro 25-6981; 2 hours at 4° C., pH 7.4
T1 construct: NR1 splice forms mixed
T1 sequence (Q00960 27-1482, other chains not shown): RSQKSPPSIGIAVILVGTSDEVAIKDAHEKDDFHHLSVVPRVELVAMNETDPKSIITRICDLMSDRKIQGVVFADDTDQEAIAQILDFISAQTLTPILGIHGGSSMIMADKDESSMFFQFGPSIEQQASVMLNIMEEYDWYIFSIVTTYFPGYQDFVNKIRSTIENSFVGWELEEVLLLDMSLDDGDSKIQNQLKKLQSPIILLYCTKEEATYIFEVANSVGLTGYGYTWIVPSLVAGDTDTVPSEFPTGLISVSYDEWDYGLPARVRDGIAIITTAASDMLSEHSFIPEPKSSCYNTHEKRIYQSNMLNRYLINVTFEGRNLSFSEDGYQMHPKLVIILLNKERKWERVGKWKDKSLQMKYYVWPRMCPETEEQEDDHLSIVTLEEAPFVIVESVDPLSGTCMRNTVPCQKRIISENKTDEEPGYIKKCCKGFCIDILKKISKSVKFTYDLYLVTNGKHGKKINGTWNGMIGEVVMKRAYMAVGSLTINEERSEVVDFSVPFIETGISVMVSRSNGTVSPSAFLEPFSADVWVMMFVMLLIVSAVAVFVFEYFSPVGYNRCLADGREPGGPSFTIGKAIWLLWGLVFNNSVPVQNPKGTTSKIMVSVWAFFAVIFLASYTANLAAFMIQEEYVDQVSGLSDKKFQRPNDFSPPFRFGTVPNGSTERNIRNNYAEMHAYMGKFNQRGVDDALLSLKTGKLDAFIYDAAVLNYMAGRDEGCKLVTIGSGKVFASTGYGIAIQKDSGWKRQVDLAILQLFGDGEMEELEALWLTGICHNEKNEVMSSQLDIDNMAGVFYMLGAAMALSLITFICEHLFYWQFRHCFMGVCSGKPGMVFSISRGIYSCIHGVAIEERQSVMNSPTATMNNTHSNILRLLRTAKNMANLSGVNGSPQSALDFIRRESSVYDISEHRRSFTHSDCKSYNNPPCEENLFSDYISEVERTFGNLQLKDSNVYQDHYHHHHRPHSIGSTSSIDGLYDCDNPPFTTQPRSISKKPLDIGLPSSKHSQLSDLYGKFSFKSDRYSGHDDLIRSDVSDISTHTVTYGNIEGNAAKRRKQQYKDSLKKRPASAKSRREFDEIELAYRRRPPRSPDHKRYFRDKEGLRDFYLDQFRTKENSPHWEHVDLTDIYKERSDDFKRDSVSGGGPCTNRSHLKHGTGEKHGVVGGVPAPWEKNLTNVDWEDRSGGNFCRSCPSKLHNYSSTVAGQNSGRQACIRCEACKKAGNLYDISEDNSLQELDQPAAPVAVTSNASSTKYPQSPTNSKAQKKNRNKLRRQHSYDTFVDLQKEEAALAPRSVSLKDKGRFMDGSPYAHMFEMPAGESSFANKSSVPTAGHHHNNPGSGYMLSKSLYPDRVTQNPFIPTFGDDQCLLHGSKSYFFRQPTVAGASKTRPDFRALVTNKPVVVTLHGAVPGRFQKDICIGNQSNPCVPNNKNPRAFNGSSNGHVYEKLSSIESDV

[2] = target: T2, NR1C + NR2B (NMDAR1C-NMDAR2B) (Rattus norvegicus, UniProt P35439+Q00960); assay: Electrophysiology on recombinant NMDA receptors, NR1C + NR2B, Xenopus laevis oocytes; type: cell-based; details: read-out: Electrophysiology, % block by 0.1 μM, NR1C + NR2B
T2 construct: expressed in transfected cells; host or cells: Xenopus laevis oocytes injected with mRNA (1:1 mixture)
T2 sequence (Q00960 27-1482, other chains not shown): as above

[3] = target: 3H-Prazosine binding; assay: 3H-Prazosine binding; details: rat brain membranes (minus cerebellum and medulla oblongata); 0.2 nM 3H-Prazosine; 30 minutes at room temperature, pH 7.4
Method: 3H-Prazosine binding Male Fullinsdorf albino rats weighing between 150-200 g were used. Membranes were prepared by homogenization of the whole brain minus cerebellum and medulla oblongata with a Plytron (10.000 rpm, 30 seconds), in 25 volumes of a cold Tris-HCl 50 mM, EDTA 10 mM, pH 7.1 buffer. The homogenate was centrifuged at 48.000 g for 10 minutes at 4° C. The pellet was resuspended using the Polytron in the same volume of buffer and the homogenate was incubated at 37° C. for 10 minutes. After centrifugation, the pellet was homogenized in the same buffer and frozen at -80° C. for at least 16 hours but not more than 10 days. For the binding assay the homogenate was thawed at 37° C., centrifuged and the pellet was washed three times as above in a Tris-HCl 5 mM, pH 7.4 cold buffer. The final pellet was resuspended in the same buffer and used at a final concentration of […]. 3H-Prazosine binding experiments were performed using a Tris-HCl 50 mM, pH 7.4 buffer. For displacement experiments 0.2 nM of 3H-Prazosine were used and non specific binding was measured using […] of Chlorpromazine. The incubation time was 30 minutes at room temperature and the assay was stopped by filtration on Whatman GF/B glass fiber filters (Unifilter-96, Canberra Packard S. A., Zurich, Switzerland). The filters were washed 5 times with cold buffer. The radioactivity on the filter was counted on a Packard Top-count microplate scintillation counter after addition of […] of microscint 40 (Canberra Packard S. A., Zurich, Switzerland). The effects of compounds were measured using a minimum of 8 concentrations and repeated at least once. The pooled normalized values were analyzed using a non-linear regression calculation program which provide IC50 with their relative upper and lower 95% confidence limits (RS1, BBN, USA).

[4] = target: T3, NR1C + NR2A (NMDAR1C-NMDAR2A) (Rattus norvegicus, UniProt Q00959); assay: Electrophysiology on recombinant NMDA receptors, NR1C + NR2A, Xenopus laevis oocytes; type: cell-based; details: read-out: Electrophysiology, % block by 10 μM, NR1C + NR2A
T3 construct: expressed in transfected cells; host or cells: Xenopus laevis oocytes injected with mRNA (1:1 mixture)
T3 sequence (Q00959 23-1464, other chains not shown): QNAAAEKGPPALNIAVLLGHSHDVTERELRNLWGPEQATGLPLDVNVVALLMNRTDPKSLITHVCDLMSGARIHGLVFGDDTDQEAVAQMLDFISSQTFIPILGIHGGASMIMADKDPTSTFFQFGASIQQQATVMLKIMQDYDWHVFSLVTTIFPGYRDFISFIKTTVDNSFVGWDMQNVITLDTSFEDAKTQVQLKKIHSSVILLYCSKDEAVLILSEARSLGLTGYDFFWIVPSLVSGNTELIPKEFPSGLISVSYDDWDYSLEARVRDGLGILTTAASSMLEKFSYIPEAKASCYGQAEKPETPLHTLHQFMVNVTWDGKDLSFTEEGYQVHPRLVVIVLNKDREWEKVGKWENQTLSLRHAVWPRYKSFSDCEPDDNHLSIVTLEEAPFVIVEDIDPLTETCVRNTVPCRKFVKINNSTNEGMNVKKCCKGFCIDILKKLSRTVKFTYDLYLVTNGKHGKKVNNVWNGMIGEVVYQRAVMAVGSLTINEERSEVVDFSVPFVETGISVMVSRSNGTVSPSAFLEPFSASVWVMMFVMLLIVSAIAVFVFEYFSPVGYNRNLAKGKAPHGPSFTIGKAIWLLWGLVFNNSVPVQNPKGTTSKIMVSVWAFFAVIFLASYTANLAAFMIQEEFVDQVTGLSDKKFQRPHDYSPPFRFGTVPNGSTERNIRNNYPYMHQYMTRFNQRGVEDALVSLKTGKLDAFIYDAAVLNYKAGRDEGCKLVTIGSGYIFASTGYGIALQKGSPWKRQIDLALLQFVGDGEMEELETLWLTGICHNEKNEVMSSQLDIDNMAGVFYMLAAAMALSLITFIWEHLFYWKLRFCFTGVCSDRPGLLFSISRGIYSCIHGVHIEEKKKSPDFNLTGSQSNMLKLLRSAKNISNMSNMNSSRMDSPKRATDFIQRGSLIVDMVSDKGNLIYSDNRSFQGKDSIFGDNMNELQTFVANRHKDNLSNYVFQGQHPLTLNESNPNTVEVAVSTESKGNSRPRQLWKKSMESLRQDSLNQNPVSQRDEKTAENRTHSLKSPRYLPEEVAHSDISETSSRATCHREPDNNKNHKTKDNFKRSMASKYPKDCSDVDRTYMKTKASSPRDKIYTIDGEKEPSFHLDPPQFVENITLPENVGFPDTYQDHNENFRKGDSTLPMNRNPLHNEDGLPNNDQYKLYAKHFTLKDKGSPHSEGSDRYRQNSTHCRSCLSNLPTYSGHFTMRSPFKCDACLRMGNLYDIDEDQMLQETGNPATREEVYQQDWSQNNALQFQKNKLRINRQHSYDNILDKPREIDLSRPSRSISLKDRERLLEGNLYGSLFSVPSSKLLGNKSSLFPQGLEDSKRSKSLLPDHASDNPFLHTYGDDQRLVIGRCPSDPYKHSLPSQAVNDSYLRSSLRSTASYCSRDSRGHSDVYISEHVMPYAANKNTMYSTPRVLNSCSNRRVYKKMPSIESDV
Method: Oocytes of South African frogs (Xenopus laevis) were used for expressing either a combination of the NMDAR1C and NMDAR2A subunits or the NMDAR1C and NMDAR2B subunits. Approximately 3 fmol of a 1:1 mixture of the respective MRNA species were injected into every oocyte. Four to five days later, the ion current through the NMDA receptor channels was measured in voltage clamp experiments (see Methfessel et al., 1986, Pflugers Arch. 407:577 for the methods of oocyte expression and voltage-clamping). The membrane potential was clamped to -80 mV and the receptors were activated by applying a modified Ringer,s solution containing the NMDA-receptor agonists L-asparatate (Asp) and glycine (Gly). Different agonist concentrations were chosen for either subunit combination to account for the different agonist sensitivities of the two types of receptors (70 mM Asp plus 2.5 mM Gly for NMDAR1C-NMDAR2A and 15 mM Asp plus 0.2 mM Gly for NMDAR1C-NMDAR2B). The agonists were applied for 15 s intervals once every 2.5 min by rapid superfusion of the oocyte with agonist containing solution and the amplitude of the agonist-evoked current was measured immediately before the end of each application. After a series of initial control applications, the antagonist to be tested was added to both, the basal Ringer,s and the agonist containing solution. The antagonist concentration applied to oocytes expressing the NR2A subunit was 10 mmol/l, whereas 0.1 mmol/l were applied to the NR2B expressing oocytes. Four to eight oocytes were tested for every compound and NMDA receptor subtype. Oocytes were exposed to the compounds for 5 to 30 min depending on the time needed for reaching an equilibrium block of the NMDA receptor current. For every oocyte the decrease of the current amplitude was expressed as a percentage of the control current measured before application of the compound.

[5] = 0.1 μM compound, Xenopus laevis oocytes, -80 mV, mean of four to eight oocytes
[6] = 10 μM compound, Xenopus laevis oocytes, -80 mV, mean of four to eight oocytes

## Cc1ccc(CC2(O)CCN(CC(O)COc3ccc(O)cc3)CC2)cc1 (racemic) [A/1, (RS)-1-[2-Hydroxy-3-(4-hydroxy-phenoxy)-propyl]-4-(4-methyl-benzyl)-piperidin-4-ol hydrochloride]
[1]
  IC50: 15 nM
[2]
  inhibition at 0.1 µM: 96%
[3]
  IC50: 1500 nM
[4]
  inhibition at 10 µM: 29%

## Oc1ccc(CC(O)CN2CCC(O)(Cc3ccccc3)CC2)cc1 (racemic) [L/30, (RS)-4-Benzyl-1-[2-hydroxy-3-(4-hydroxy-phenyl)-propyl]-piperidin-4-ol]
[1]
  IC50: 60 nM
[3]
  IC50: 7400 nM

## Cc1ccc(CC2(O)CCN(CC(O)Cc3ccc(O)cc3)CC2)cc1 (racemic) [M/31, (RS)-1-[2-Hydroxy-3-(4-hydroxy-phenyl)-propyl]-4-(4-methyl-benzyl)-piperidin-4-ol]
[1]
  IC50: 20 nM
[2]; [5]
  inhibition at 0.1 µM: 89%
[3]
  IC50: 9700 nM
[4]; [6]
  inhibition at 10 µM: 10%

## Oc1ccc(CC(O)CN2CCC(O)(Cc3ccc(Cl)cc3)CC2)cc1 (racemic) [N/32, (RS)-4-(4-Chloro-benzyl)-1-[2-hydroxy-3-(4-hydroxy-phenyl)-propyl]-piperidin-4-ol]
[1]
  IC50: 40 nM
[2]; [5]
  inhibition at 0.1 µM: 81%
[3]
  IC50: 9200 nM
[4]; [6]
  inhibition at 10 µM: 19%

## Cc1ccc(CC2(O)CCN(CC(O)Cc3ccc(O)c(F)c3)CC2)cc1 (racemic) [W/94, (RS)-1-[3-(3-Fluoro-4-hydroxy-phenyl)-2-hydroxy-propyl]-4-(4-methyl-benzyl)-piperidin-4-ol hydrochloride]
[1]
  IC50: 20 nM
[3]
  IC50: 6600 nM

## Oc1ccc(OC[C@@H](O)CN2CCC(O)(Cc3ccccc3)CC2)cc1 [B/5, (S)-4-Benzyl-1-[2-hydroxy-3-(4-hydroxy-phenoxy)-propyl]-piperidin-4-ol]
[1]
  IC50: 60 nM
[3]
  IC50: 4000 nM

## Cc1ccc(CC2(O)CCN(CCOc3ccc(O)cc3)CC2)cc1 [C/9, 1-[2-(4-Hydroxy-phenoxy)-ethyl]-4-(4-methyl-benzyl)-piperidin-4-ol]
[2]; [5]
  inhibition at 0.1 µM: 88%
[3]
  IC50: 3500 nM
[4]; [6]
  inhibition at 10 µM: 31%

## Oc1ccc(OCCN2CCC(O)(Cc3ccc(F)cc3)CC2)cc1 [D/10, 4-(4-Fluoro-benzyl)-1-[2-(4-hydroxy-phenoxy)-ethyl]-piperidin-4-ol]
[1]
  IC50: 40 nM
[3]
  IC50: 3000 nM

## Cc1ccc(CC2(O)CCN(CCOc3ccc(NS(C)(=O)=O)cc3)CC2)cc1 [E/11, N-(4-{2-[4-hydroxy-4-(4-methyl-benzyl)-piperidin-1-yl]-ethoxy}-phenyl)-methanesulfonamide hydrochloride]
[1]
  IC50: 30 nM
[2]
  inhibition at 0.1 µM: 91%
[3]
  IC50: 5000 nM
[4]
  inhibition at 10 µM: 27%

## CS(=O)(=O)Nc1ccc(OCCN2CCC(O)(Cc3ccc(F)cc3)CC2)cc1 [F/12, N-(4-{2-[4-(4-fluoro-benzyl)-4-hydroxy-piperidin-1-yl]-ethoxy}-phenyl)-methanesulfonamide]
[1]
  IC50: 60 nM
[3]
  IC50: 6000 nM

## CS(=O)(=O)Nc1ccc(OCCN2CCC(O)(Cc3ccc(Cl)cc3)CC2)cc1 [G/13, N-(4-{2-[4-(4-Chloro-benzyl)-4-hydroxy-piperidin-1-yl]-ethoxy}-phenyl)-methanesulfonamide]
[1]
  IC50: 30 nM
[3]
  IC50: 9000 nM

## CS(=O)(=O)Nc1ccc(OCCCN2CCC(O)(Cc3ccc(F)cc3)CC2)cc1 [H/14, N-(4-{3-[4-(4-Fluoro-benzyl)-4-hydroxy-piperidin-1-yl]-propoxy}-phenyl)-methanesulfonamide]
[1]
  IC50: 40 nM
[3]
  IC50: 1800 nM

## Cc1ccc(CC2(O)CCN(C(C)COc3ccc(O)cc3)CC2)cc1 (stereo not drawn) [I/22, 1-[2-(4-Hydroxy-phenoxy)-1-methyl-ethyl]-4-(4-methyl-benzyl)-piperidin-4-ol]
[1]
  IC50: 40 nM
[3]
  IC50: 2500 nM

## O=C(CN1CCC(O)(Cc2ccccc2)CC1)Nc1ccc(O)cc1 [J/23, 2-(4-Benzyl-4-hydroxy-piperidin-1-yl)-N-(4-hydroxy-phenyl)-acetamide]
[1]
  IC50: 70 nM
[3]
  IC50: 20000 nM

## Cc1ccc(CC2(O)CCN(CC(=O)Nc3ccc(O)cc3)CC2)cc1 [K/24, 2-[4-Hydroxy-4-(4-methyl-benzyl)-piperidin-1-yl]-N-(4-hydroxy-phenyl)-acetamide]
[1]
  IC50: 40 nM
[2]; [5]
  inhibition at 0.1 µM: 83%
[3]
  IC50: 30000 nM
[4]; [6]
  inhibition at 10 µM: 10%

## Cc1ccc(CC2(O)CCN(CCOC(=O)c3ccc(O)cc3)CC2)cc1 [O/34, 4-Hydroxy-benzoic acid 2-[4-hydroxy-4-(4-methyl-benzyl)-piperidin-1-yl]ethylester]
[1]
  IC50: 10 nM
[3]
  IC50: 800 nM

## Cc1ccc(CC2(O)CCN(CCCOC(=O)c3ccc(O)cc3)CC2)cc1 [P/35, 4-Hydroxy-benzoic acid 3-[4-hydroxy-4-(4-methyl-benzyl)-piperidin-1-yl]-propylester]
[1]
  IC50: 3 nM
[3]
  IC50: 260 nM

## O=C(NCCN1CCC(O)(Cc2ccccc2)CC1)c1ccc(O)cc1 [Q/36, N-[2-(4-Benzyl-4-hydroxy-piperidin-1-yl)-ethyl]-4-hydroxy-benzamide]
[1]
  IC50: 10 nM
[3]
  IC50: 5000 nM

## Cc1ccc(CC2(O)CCN(CCNC(=O)c3ccc(O)cc3)CC2)cc1 [R/37, 4-Hydroxy-N-[2-[4-hydroxy-4-(4-methyl-benzyl)-piperidin-1-yl]-ethyl]-benzamide]
[1]
  IC50: 6 nM
[2]; [5]
  inhibition at 0.1 µM: 42%
[3]
  IC50: 5300 nM
[4]; [6]
  inhibition at 10 µM: 8%

## O=C(NCCCN1CCC(O)(Cc2ccccc2)CC1)c1ccc(O)cc1 [S/38, N-[3-(4-Benzyl-4-hydroxy-piperidin-1-yl)-propyl]-4-hydroxy-benzamide]
[1]
  IC50: 16 nM
[3]
  IC50: 7300 nM

## Cc1ccc(CC2(O)CCN(CCCNC(=O)c3ccc(O)cc3)CC2)cc1 [T/39, 4-Hydroxy-N-[3-[4-hydroxy-4-(4-methyl-benzyl)-piperidin-1-yl]-propyl]-benzamide]
[1]
  IC50: 9 nM
[3]
  IC50: 2300 nM

## Cc1ccc(CC2(O)CCN(C/C=C/c3ccc(O)cc3)CC2)cc1 [V/41, (E)-1-[3-(4-Hydroxy-phenyl)-allyl]-4-(4-methyl-benzyl)-piperidin-4-ol]
[1]
  IC50: 8 nM
[3]
  IC50: 3000 nM
